Results: PubChem BioAssay (NCI)
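Method: 48-hour compound exposure of cells in 96-well plates, five concentrations, linear interpolation of endpoints. GI50 is the concentration that inhibits growth by half. TGI is the concentration that stops growth completely.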

Columns and labels:
Assay in all cases: DTP human tumour cell line panel, 48 h
PC-3 prostate = tested on: PC-3 prostate
LOX IMVI melanoma = tested on: LOX IMVI melanoma
HCT-15 colon = tested on: HCT-15 colon
SNB-19 CNS = tested on: SNB-19 CNS
UACC-257 melanoma = tested on: UACC-257 melanoma
SK-OV-3 ovarian = tested on: SK-OV-3 ovarian
T-47D breast = tested on: T-47D breast
SK-MEL-5 melanoma = tested on: SK-MEL-5 melanoma
RPMI-8226 leukemia = tested on: RPMI-8226 leukemia
SF-295 CNS = tested on: SF-295 CNS
HL-60(TB) leukemia = tested on: HL-60(TB) leukemia
OVCAR-4 ovarian = tested on: OVCAR-4 ovarian
SN12C renal = tested on: SN12C renal
HOP-62 NSCLC = tested on: HOP-62 NSCLC
EKVX NSCLC = tested on: EKVX NSCLC
NCI-H460 lung = tested on: NCI-H460 lung
HCT-116 colon = tested on: HCT-116 colon
NCI/ADR-RES ovarian = tested on: NCI/ADR-RES ovarian
U251 CNS = tested on: U251 CNS
MDA-MB-231 breast = tested on: MDA-MB-231 breast
HS 578T breast = tested on: HS 578T breast
786-0 renal = tested on: 786-0 renal
SW-620 colon = tested on: SW-620 colon
SK-MEL-2 melanoma = tested on: SK-MEL-2 melanoma
A549 NSCLC = tested on: A549 NSCLC
COLO 205 colon = tested on: COLO 205 colon
MCF7 breast = tested on: MCF7 breast
DU-145 prostate = tested on: DU-145 prostate
OVCAR-5 ovarian = tested on: OVCAR-5 ovarian
HCC-2998 colon = tested on: HCC-2998 colon
NCI-H522 lung = tested on: NCI-H522 lung
RXF 393 renal = tested on: RXF 393 renal
SF-268 CNS = tested on: SF-268 CNS
TK-10 renal = tested on: TK-10 renal
SK-MEL-28 melanoma = tested on: SK-MEL-28 melanoma
BT-549 breast = tested on: BT-549 breast
KM12 colon = tested on: KM12 colon
CAKI-1 renal = tested on: CAKI-1 renal
MOLT-4 leukemia = tested on: MOLT-4 leukemia
SNB-75 CNS = tested on: SNB-75 CNS
MALME-3M melanoma = tested on: MALME-3M melanoma
SR leukemia = tested on: SR leukemia
NCI-H226 lung = tested on: NCI-H226 lung
UACC-62 melanoma = tested on: UACC-62 melanoma
CCRF-CEM leukemia = tested on: CCRF-CEM leukemia
A498 renal = tested on: A498 renal
OVCAR-8 ovarian = tested on: OVCAR-8 ovarian
NCI-H23 lung = tested on: NCI-H23 lung
M14 melanoma = tested on: M14 melanoma
MDA-MB-435 = tested on: MDA-MB-435
HT29 colon = tested on: HT29 colon
SF-539 CNS = tested on: SF-539 CNS
K-562 leukemia = tested on: K-562 leukemia
IGROV1 ovarian = tested on: IGROV1 ovarian
HOP-92 NSCLC = tested on: HOP-92 NSCLC

`COc1ccc(-c2nnc(SCc3ccc(O)c4ncccc34)n2-c2ccccc2)cc1` gave a GI50 (PC-3 prostate) of 0.526 µM, a TGI (PC-3 prostate) of 28.3 µM and a GI50 (LOX IMVI melanoma) of 0.478 µM. It also gave a TGI (LOX IMVI melanoma) of 2.62 µM, a GI50 (HCT-15 colon) of 0.328 µM and a TGI (HCT-15 colon) of over 100 µM. The GI50 (SNB-19 CNS) was 0.553 µM, the TGI (SNB-19 CNS) was over 40.9 µM and the GI50 (UACC-257 melanoma) was 1.02 µM. The TGI (UACC-257 melanoma) was 10.7 µM, the GI50 (SK-OV-3 ovarian) was 0.745 µM and the TGI (SK-OV-3 ovarian) was 9.23 µM. The GI50 (T-47D breast) was 0.929 µM, the TGI (T-47D breast) was 4.2 µM and the GI50 (SK-MEL-5 melanoma) was 0.72 µM. The TGI (SK-MEL-5 melanoma) was 3.56 µM, the GI50 (RPMI-8226 leukemia) was 0.493 µM and the TGI (RPMI-8226 leukemia) was over 100 µM. It also gave a GI50 (SF-295 CNS) of 0.449 µM, a TGI (SF-295 CNS) of 6.84 µM and a GI50 (HL-60(TB) leukemia) of 0.397 µM. It also gave a TGI (HL-60(TB) leukemia) of 3.41 µM, a GI50 (OVCAR-4 ovarian) of 0.739 µM and a TGI (OVCAR-4 ovarian) of over 100 µM. It also gave a GI50 (SN12C renal) of 0.468 µM, a TGI (SN12C renal) of over 100 µM and a GI50 (HOP-62 NSCLC) of 1 µM. For the same molecule, the TGI (HOP-62 NSCLC) was 16.7 µM, the GI50 (EKVX NSCLC) was 1.05 µM and the TGI (EKVX NSCLC) was 10.3 µM. For the same molecule, the GI50 (NCI-H460 lung) was 0.385 µM, the TGI (NCI-H460 lung) was 3.31 µM and the GI50 (HCT-116 colon) was 0.361 µM. It also gave a TGI (HCT-116 colon) of 5.4 µM, a GI50 (NCI/ADR-RES ovarian) of 0.29 µM and a TGI (NCI/ADR-RES ovarian) of 5.7 µM. It also gave a GI50 (U251 CNS) of 0.389 µM, a TGI (U251 CNS) of 13.8 µM and a GI50 (MDA-MB-231 breast) of 0.922 µM. For the same molecule, the TGI (MDA-MB-231 breast) was 26.7 µM, the GI50 (HS 578T breast) was 0.491 µM and the TGI (HS 578T breast) was 10 µM. The GI50 (786-0 renal) was 0.891 µM, the TGI (786-0 renal) was 9.81 µM and the GI50 (SW-620 colon) was 0.438 µM. For the same molecule, the TGI (SW-620 colon) was over 100 µM, the GI50 (SK-MEL-2 melanoma) was 1.16 µM and the TGI (SK-MEL-2 melanoma) was 6.71 µM. The GI50 (A549 NSCLC) was 0.986 µM, the TGI (A549 NSCLC) was over 60 µM and the GI50 (COLO 205 colon) was 6.71 µM. The TGI (COLO 205 colon) was over 100 µM, the GI50 (MCF7 breast) was 0.395 µM and the TGI (MCF7 breast) was over 100 µM. For the same molecule, the GI50 (DU-145 prostate) was 0.637 µM, the TGI (DU-145 prostate) was over 53.5 µM and the GI50 (OVCAR-5 ovarian) was 3.96 µM. It also gave a TGI (OVCAR-5 ovarian) of over 100 µM, a GI50 (HCC-2998 colon) of 1.19 µM and a TGI (HCC-2998 colon) of over 100 µM. For the same molecule, the GI50 (NCI-H522 lung) was 0.479 µM, the TGI (NCI-H522 lung) was 11.1 µM and the GI50 (RXF 393 renal) was 0.915 µM. The TGI (RXF 393 renal) was 11.1 µM, the GI50 (SF-268 CNS) was 0.605 µM and the TGI (SF-268 CNS) was 56.6 µM. For the same molecule, the GI50 (TK-10 renal) was 0.87 µM, the TGI (TK-10 renal) was 7.51 µM and the GI50 (SK-MEL-28 melanoma) was 0.726 µM. The TGI (SK-MEL-28 melanoma) was 31.3 µM, the GI50 (BT-549 breast) was 0.572 µM and the TGI (BT-549 breast) was 17 µM. For the same molecule, the GI50 (KM12 colon) was 0.619 µM, the TGI (KM12 colon) was over 89 µM and the GI50 (CAKI-1 renal) was 0.637 µM. It also gave a TGI (CAKI-1 renal) of 4.29 µM, a GI50 (MOLT-4 leukemia) of 0.508 µM and a TGI (MOLT-4 leukemia) of over 100 µM. It also gave a GI50 (SNB-75 CNS) of 0.951 µM, a TGI (SNB-75 CNS) of 6.13 µM and a GI50 (MALME-3M melanoma) of 0.968 µM. The TGI (MALME-3M melanoma) was 5.21 µM, the GI50 (SR leukemia) was 0.371 µM and the TGI (SR leukemia) was over 100 µM. It also gave a GI50 (NCI-H226 lung) of 2.46 µM, a TGI (NCI-H226 lung) of 98 µM and a GI50 (UACC-62 melanoma) of 1.31 µM. It also gave a TGI (UACC-62 melanoma) of 4.98 µM, a GI50 (CCRF-CEM leukemia) of 0.424 µM and a TGI (CCRF-CEM leukemia) of over 100 µM. The GI50 (A498 renal) was 2.23 µM, the TGI (A498 renal) was 12.5 µM and the GI50 (OVCAR-8 ovarian) was 0.447 µM. The TGI (OVCAR-8 ovarian) was 96.9 µM, the GI50 (NCI-H23 lung) was 0.661 µM and the TGI (NCI-H23 lung) was 30.4 µM. For the same molecule, the GI50 (M14 melanoma) was 0.451 µM, the TGI (M14 melanoma) was 2.5 µM and the GI50 (MDA-MB-435) was 0.468 µM. The TGI (MDA-MB-435) was over 100 µM, the GI50 (HT29 colon) was 4.9 µM and the TGI (HT29 colon) was over 100 µM. The GI50 (SF-539 CNS) was 0.605 µM, the TGI (SF-539 CNS) was 5.04 µM and the GI50 (K-562 leukemia) was 0.37 µM. The TGI (K-562 leukemia) was over 100 µM, the GI50 (IGROV1 ovarian) was 0.892 µM and the TGI (IGROV1 ovarian) was 25 µM. It also gave a GI50 (HOP-92 NSCLC) of 0.231 µM and a TGI (HOP-92 NSCLC) of 0.818 µM.
